Assay results reported in article PMC4721062, “Oxadiazole-2-oxides may have other functional targets, in addition to SjTGR, through which they cause mortality in Schistosoma japonicum” (Parasites & Vectors, 2016).
Where two headings read alike, the source gives them in different places.

Tests used:
recombinant SjTGR = target: T1, recombinant SjTGR (Schistosoma japonicum, UniProt B5THG7); experiment: Inhibition of TrxR activity of recombinant SjTGR (DTNB assay); format: biochemical; conditions: 50 nM SjTGR, 1 mM NADPH, 15 min preincubation, DTNB reduction; read-out: IC50 of SjTGR
T1 sequence (B5THG7 1-596): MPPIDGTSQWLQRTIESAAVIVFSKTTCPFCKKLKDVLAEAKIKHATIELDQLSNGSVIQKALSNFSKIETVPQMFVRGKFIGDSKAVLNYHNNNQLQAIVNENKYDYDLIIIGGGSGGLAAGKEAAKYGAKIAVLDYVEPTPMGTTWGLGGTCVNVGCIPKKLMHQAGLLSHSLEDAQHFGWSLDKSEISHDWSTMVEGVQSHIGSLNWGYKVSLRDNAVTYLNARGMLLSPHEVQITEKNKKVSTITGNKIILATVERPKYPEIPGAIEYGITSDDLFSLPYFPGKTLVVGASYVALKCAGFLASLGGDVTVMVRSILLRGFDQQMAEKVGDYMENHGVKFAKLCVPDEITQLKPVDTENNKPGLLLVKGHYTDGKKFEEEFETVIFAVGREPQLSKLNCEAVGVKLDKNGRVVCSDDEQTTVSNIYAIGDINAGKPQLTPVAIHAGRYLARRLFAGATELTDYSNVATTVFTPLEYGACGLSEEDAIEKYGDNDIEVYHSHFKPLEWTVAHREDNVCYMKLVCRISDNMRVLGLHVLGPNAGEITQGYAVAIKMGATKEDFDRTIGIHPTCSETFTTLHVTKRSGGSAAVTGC
Protocol: The purified recombinant SjTGR proteins were produced according to the method described by Song et al.. The inhibition of TrxR activity by the recombinant SjTGR was performed as reported by Rai et al.. Briefly, 50 nM SjTGR and 1 mM NADPH were incubated with different concentrations of oxadiazole-2-oxides (2, 4, 6, 10, 20 μM) for 15 min at room temperature. Then, potassium phosphate buffer (pH 7.4) containing 10 mM EDTA, 100 μM NADPH, and 3 mM DTNB was added to start the reaction. The increase of absorbance at 412 nm was monitored during the first 2 min. All assays were done in triplicate.
50 nM SjTGR and 1 mM NADPH were incubated with different concentrations of oxadiazole-2-oxides (2, 4, 6, 10, 20 μM) for 15 min at room temperature. Then, potassium phosphate buffer (pH 7.4) containing 10 mM EDTA, 100 μM NADPH, 3 mM DTNB was added to start the reaction. The increase in absorbance at 412 nm was monitored during the first 2 min. All assays were done in triplicate. Results shown are the mean ± SD (n = 3)

adult S. japonicum = experiment: microbe, parasite or virus in culture; format: cell-based; conditions: for killing at 100 µM / Killing activity 24hr / Killing activity 48hr / Killing activity 72hr / killing at 25 µM / killing at 50 µM: adult worms
Text: ICR mice (20–22 g), were obtained from the Shanghai Sub-Center of Experimental Animals, Chinese Academy of Sciences. They were maintained at the Department of Experimental Animals, Jiangsu Institute of Parasitic Diseases. To infect each mouse, its abdominal skin was exposed to 50 S. japonica cercariae. All of the mice were executed to collect S. japonica adult worms, through portal vein perfusion, 35 days post-infection. The adult S. japonica collected were washed with RPMI 1640 medium and then kept in RPMI 1640 medium (pH 7.5) with HEPES 20 mM, penicillin (100 IU/mL), streptomycin ([…]) and 10 % fetal bovine serum. Then, two pairs of adult worms were transferred into each well of a 24-well culture plate, with 2 mL of the same medium. The worms were cultured at 37 °C in a humid atmosphere with 5 % CO2.
Adult worms were cultured in a 24-well culture plate for 30–60 min at 37 °C, in a humid atmosphere with 5 % CO2. Then, oxadiazole-2-oxides at different concentrations (10, 25, 50, 100 μM) were added. Equal volumes of RPMI 1640 or DMSO were applied as negative controls, while PZQ was applied as a positive control. The adult worm mobility and parasite survival rates were monitored using an inverted phase contrast microscope, at 24, 48 and 72 h. Parasite death was defined as there being no motor activity during 2 min of continuous observation, and morphological and tegumental alterations. All assays were repeated three times.
^b Data collected by visual examination of worm movement and shape; n.e. […] The data presented are the average of three independent experiments.

juvenile S. japonicum = experiment: microbe, parasite or virus in culture; format: cell-based; conditions: for killing at 2 µM / killing at 5 µM / killing at 50 µM / Killing activity 24hr / Killing activity 48hr / Killing activity 72hr: juvenile worms; for Killing activity 24hr / Killing activity 48hr / Killing activity 72hr: 10 μM
Protocol: Infected Oncomelania hupensis, provided by the Department of Snail Biology, Jiangsu Institute of Parasitic Diseases, were incubated at 25–28 °C, under illumination, for 2 h to hatch S. japonicum cercariae. The cercariae were collected from the water surface with clean cover glass and placed into a centrifuge tube using pre cooled RPMI 1640. Centrifugation was performed for 1 min at 1500 rpm, and then the steps above were repeated. After centrifugation, the supernatant solution was removed. The cercariae at the bottom were washed twice and resuspended with RPMI 1640. Approximately 20–30 cercariae (1 mL of the resuspension medium) were added to one well in a 24-well culture plate. They were incubated overnight at 37 °C with 5 % CO2. The survival rates and number of tails shed were observed under an inverted microscope. Cercariae that had shed their tails were used as juvenile S. japonicum.
20–30 juvenile worms were transferred into each well of a 24-well culture plate, containing 2 mL RPMI 1640 medium, 20 mM HEPES, 100 IU/mL penicillin, […] streptomycin and 10 % fetal bovine serum. Then, oxadiazole-2-oxides (2, 5, 10, and 50 μM), diluted with the RPMI 1640 medium, were added to their allocated wells. The worms in the negative control wells were treated with equal volumes of RPMI 1640 or DMSO and worms treated with AS were observed as positive controls. The juvenile worms’ survival rates were observed under an inverted phase contrast microscope (Leica, Wetzlar, Germany) at 24, 48 and 72 h. Parasite death was defined as an unclear internal structure of the juvenile worms, with incomplete tegument and contents overflowing radially, or unclear internal structure with complete tegument, but having no motor activity during 1 min of continuous observation. All assays were repeated three times.
^b Data collected by visual examination of worm movement and shape; % D = The number of worms dead / The total number of worms observed, and worms dead judged by unclear internal structure of juvenile worms with uncompleted tegument, and contents overflowing radially, or unclear internal structure with complete tegument, but having no motor activity during 1 min of continuous observation. The data presented are the average of three independent experiments.

[1] = Schistosoma japonicum, 24 h, read-out: Killing activity 24hr
[2] = Schistosoma japonicum, 48 h, read-out: Killing activity 48hr
[3] = Schistosoma japonicum, 72 h, read-out: Killing activity 72hr

Question: Which results are given for `[O-][n+]1onc(-c2ccc(Br)cc2)c1CO` [Compound 4c]?
Answer: IC50 (recombinant SjTGR): 8.6 µM; mortality at 100 µM (adult S. japonicum; Schistosoma japonicum, read-out: Mortality of adult worms): 57.1 ± 2.3%; killing at 100 µM (adult S. japonicum; [1]): 57.1%; killing at 100 µM (adult S. japonicum; [2]): 71.4%; killing at 100 µM (adult S. japonicum; [3]): 71.4%; Killing activity 24hr (adult S. japonicum; 10 μM, 24 h): n.e.; Killing activity 48hr (adult S. japonicum; 10 μM, 48 h): n.e.; Killing activity 72hr (adult S. japonicum; 10 μM, 72 h): n.e.; Killing activity 24hr (adult S. japonicum; 25 μM, 24 h): n.e.; Killing activity 48hr (adult S. japonicum; 25 μM, 48 h): n.e.; Killing activity 72hr (adult S. japonicum; 25 μM, 72 h): n.e.; Killing activity 24hr (adult S. japonicum; 50 μM, 24 h): n.e.; Killing activity 48hr (adult S. japonicum; 50 μM, 48 h): n.e.; Killing activity 72hr (adult S. japonicum; 50 μM, 72 h): n.e.; mortality at 50 µM (juvenile S. japonicum; Schistosoma japonicum, 24 h, read-out: Mortality of juvenile worms): < 30%; killing at 2 µM (juvenile S. japonicum; [1]): 15%; killing at 2 µM (juvenile S. japonicum; [2]): 20%; killing at 2 µM (juvenile S. japonicum; [3]): 20%; killing at 5 µM (juvenile S. japonicum; [1]): 24.5%; killing at 5 µM (juvenile S. japonicum; [2]): 24.5%; killing at 5 µM (juvenile S. japonicum; [3]): 26.4%; killing at 50 µM (juvenile S. japonicum; [1]): 25.8%; killing at 50 µM (juvenile S. japonicum; [2]): 25.8%; killing at 50 µM (juvenile S. japonicum; [3]): 51.6%; Killing activity 24hr (juvenile S. japonicum; 24 h): 7.1%D; Killing activity 48hr (juvenile S. japonicum; 48 h): 14.3%D; Killing activity 72hr (juvenile S. japonicum; 72 h): 17.9%D

Question: Which results are given for `N#Cc1c(-c2ccc(OCCCCBr)cc2)no[n+]1[O-]` [Compound 14]?
Answer: IC50 (recombinant SjTGR): 15.5 µM; mortality at 25 µM (adult S. japonicum; Schistosoma japonicum, 24 h, read-out: Mortality of adult worms): > 75%; killing at 25 µM (adult S. japonicum; Schistosoma japonicum, 25 μM, 24 h, read-out: Killing activity 24hr): 75%; killing at 25 µM (adult S. japonicum; Schistosoma japonicum, 25 μM, 48 h, read-out: Killing activity 48hr): 87.5%; killing at 25 µM (adult S. japonicum; Schistosoma japonicum, 25 μM, 72 h, read-out: Killing activity 72hr): 100%; killing at 50 µM (adult S. japonicum; Schistosoma japonicum, 50 μM, 24 h, read-out: Killing activity 24hr): 100%; killing at 50 µM (adult S. japonicum; Schistosoma japonicum, 50 μM, 48 h, read-out: Killing activity 48hr): 100%; killing at 50 µM (adult S. japonicum; Schistosoma japonicum, 50 μM, 72 h, read-out: Killing activity 72hr): 100%; killing at 100 µM (adult S. japonicum; [1]): 100%; killing at 100 µM (adult S. japonicum; [2]): 100%; killing at 100 µM (adult S. japonicum; [3]): 100%; Killing activity 24hr (adult S. japonicum; 10 μM, 24 h): 33.3%D; Killing activity 48hr (adult S. japonicum; 10 μM, 48 h): 44.4%D; Killing activity 72hr (adult S. japonicum; 10 μM, 72 h): 77.8%D; killing at 2 µM (juvenile S. japonicum; [1]): 21.6%; killing at 2 µM (juvenile S. japonicum; [2]): 31.1%; killing at 2 µM (juvenile S. japonicum; [3]): 35.1%; killing at 5 µM (juvenile S. japonicum; [1]): 26.4%; killing at 5 µM (juvenile S. japonicum; [2]): 33.3%; killing at 5 µM (juvenile S. japonicum; [3]): 38.9%; killing at 50 µM (juvenile S. japonicum; [1]): 46.4%; killing at 50 µM (juvenile S. japonicum; [2]): 66.4%; killing at 50 µM (juvenile S. japonicum; [3]): 80%; Killing activity 24hr (juvenile S. japonicum; 24 h): 30.4%D; Killing activity 48hr (juvenile S. japonicum; 48 h): 69.6%D; Killing activity 72hr (juvenile S. japonicum; 72 h): 69.6%D
